Measurements reported in patent US20110305784A1, “Fractionated products obtained from gamboge resin, and medical uses of the same” (priority 2010, published 2011).
≈ marks a conversion by molar mass, not a printed value. Marks after values point to notes of the source that are not given here.

Assays:
male Wistar rats [1] = test: In vivo anti-inflammation test of the fractionated products TSB-14A to TSB-14E (carrageenan hind paw edema); settings: aspirin positive control, oral, three hours after carrageenan injection
Method: Briefly, male Wistar rats with a weight of around 160±5 g were randomly divided into four groups (n=5 for each group) including two experimental groups (i.e., TSB-9-W1-1 group and TSB-9-W1-2 group) and two control groups (i.e., a vehicle normal control group and an aspirin positive control group). After overnight fasting, the rats in the TSB-9-W1-1 and the TSB-9-W1-2 groups were orally administered with the formulation TSB-9-W1 at a dose of 10 mg/Kg and a dose of 30 mg/Kg, respectively, the rats in the vehicle normal control group were orally administered with 2% Tween 80 at a dosing volume of 10 mL/Kg, and the rats in the aspirin positive control group were orally administered with aspirin at a dose of 150 mg/Kg. One hour later, 0.1 mL of a 1% carrageenan suspension was intraplantarly injected into the right hind paws of rats in each group. Three hours after the intraplantar injection, the volumes of the left and right hind paws of each rat were measured using a plethysmometer (#7150, UGO Basile, Italy) including a water cell (a diameter of 25 mm; #7157, UGO Basile, Italy), and the hind paw edema volume was expressed as the difference between the measured volumes of the left and right hind paws. Inhibition rate (%) of hind paw edema in each group of rats was calculated using the following Equation (2): […]

male Wistar rats [2] = test: In vivo anti-inflammation test of formulation TSB-9-W1 (carrageenan hind paw edema); settings: aspirin oral 150 mg/Kg, three hours after carrageenan injection
Method: Briefly, male Wistar rats with a weight of around 160±5 g were randomly divided into four groups (n=5 for each group) including two experimental groups ([…]1-1 group and TSB-9-W1-2 group) and two control groups (i.e., a vehicle normal control group and an aspirin positive control group). […] Three hours after the intraplantar injection, the volumes of the left and right hind paws of each rat were measured using a plethysmometer (#7150, UGO Basile, Italy) including a water cell (a diameter of 25 mm; #7157, UGO Basile, Italy), and the hind paw edema volume was expressed as the difference between the measured volumes of the left and right hind paws. […] D=(E-F)/E×100 (2) wherein D=inhibition rate of hind paw edema, • E=the average value of the hind paw edema volumes in the vehicle normal control group of rats, and • F=the average value of the hind paw edema volumes in each group of rats.

[3] = system: Human histocytic lymphoma cell U937; test: cells; settings: for IC50: U-937, read-out: IC50 (50% inhibition concentration); for CC50: U-937, read-out: LC50 (50% lethal concentration)
Source text: (§1) The in vitro anti-cancer test was primarily used to detect the effect of a candidate drug on cancer cell proliferation. The working principle involved therein is the ability of viable cells to shift alamarBlue (AbD Serotec, UK) from its originally non-fluorescent oxidized state (non-fluorescent, blue) to a reduced form (fluorescent, red) having fluorescence via metabolic reaction. According to the fluorescent data result generated by the alamarBlue reagent thus obtained, the proliferation of the viable cells and cell activity can be quantified for detection.
(§2) In the in vitro anti-cancer tests, a candidate drug was tested at 5 different concentrations of 0.01, 0.1, 1, 10, and 100 μg/ml, and six human cancer cell lines and a normal human cell line were used (see Table 10).

[4] = system: Human promyelocytic leukemia cell HL-60; test: cells; settings: for IC50: HL-60, read-out: IC50 (50% inhibition concentration); for CC50: HL-60, read-out: LC50 (50% lethal concentration)
Source text: as §1, §2

in vitro = settings: human
Source text: as §1, §2

[5] = system: Human lung carcinoma cell A549; test: cells; settings: for IC50: A549, read-out: IC50 (50% inhibition concentration); for CC50: A549, read-out: LC50 (50% lethal concentration)
Source text: as §1, §2

[6] = system: Human umbilical venal epithelial cell (HUVEC); test: cells; settings: Homo sapiens, HUVEC, read-out: IC50 (50% inhibition concentration)
Source text: as §1, §2

[7] = system: Human hepatocellular carcinoma cell HepG2; test: cells; settings: for IC50: HepG2, read-out: IC50 (50% inhibition concentration); for CC50: HepG2, read-out: LC50 (50% lethal concentration)
Source text: as §1, §2

[8] = system: Human breast adenocarcinoma cell MCF7; test: cells; settings: for IC50: MCF7, read-out: IC50 (50% inhibition concentration); for CC50: MCF7, read-out: LC50 (50% lethal concentration)
Source text: as §1, §2

[9] = system: Human colon adenocarcinoma cell HT-29; test: cells; settings: for IC50: HT-29, read-out: IC50 (50% inhibition concentration); for CC50: HT-29, read-out: LC50 (50% lethal concentration)
Source text: as §1, §2

male CD-1 (Crl.) mice [10] = test: In vivo analgesia test of the fractionated products TSB-14A to TSB-14E (formalin, hind paw licking); design: concentration or dose not given beside the values; settings: morphine positive control, oral
male CD-1 (Crl.) mice [11] = test: In vivo analgesia test of formulation TSB-9-W (formalin, hind paw licking); settings: morphine oral 30 mg/Kg
Method: The formulation TSB-9 was milled to obtain a formulation TSB-9-W having a particle size of around 10 μm, and an in vivo analgesia test of the formulation TSB-9-W was performed by the MDS Pharma Services.
Briefly, male CD-1 (Crl.) mice were randomly divided into three groups (n=5 for each group) including an experimental group (i.e., TSB-9-W group) and two control groups (i.e., a vehicle normal control group and a morphine positive control group). The mice in the TSB-9-W group were orally administered with the formulation TSB-9-W at a dose of 100 mg/Kg, the mice in the vehicle normal control group were orally administered with 2% Tween 80 at a dosing volume of 10 mL/Kg, and the mice in the morphine positive control group were orally administered with morphine at a dose of 30 mg/Kg. One hour later, 0.02 mL of a 2% formalin solution was subplantarly injected into the hind paws of mice in each group, and the hind paw licking times for each mouse were counted at the time intervals of 0-5 minutes and 15-30 minutes after formalin injection. Inhibition rate (%) of hind paw licking in each group of mice was calculated using the following Equation (1):
wherein A=inhibition rate of hind paw licking (%), • B=the average value of the hind paw licking times in the vehicle normal control group of mice, and • C=the average value of the hind paw licking times in each group of mice.

[12] = 0-5 minutes after formalin injection

Compound	IC50 [3] [µg/mL]	CC50 [3] [µg/mL]	IC50 [4] [µg/mL]	CC50 [4] [µg/mL]	CC50 (in vitro) [µg/mL]	IC50 [5] [µg/mL]	CC50 [5] [µg/mL]	IC50 [6] [µg/mL]	IC50 [7] [µg/mL]	CC50 [7] [µg/mL]	IC50 [8] [µg/mL]	CC50 [8] [µg/mL]	IC50 [9] [µg/mL]	CC50 [9] [µg/mL]	also measured
CC(=O)Oc1ccccc1C(=O)O [Aspirin, aspirin]	–	–	–	–	–	–	–	–	–	–	–	–	–	–	Inhibition rate of hind paw edema (%) (male Wistar rats [1]): 37* %; Inhibition rate of hind paw edema (%) (male Wistar rats [2]): 40* %
CC(C)=CCc1c2c(c(O)c3c1O[C@]14C(=C[C@@H]5CC1C(C)(C)OC4(C/C=C(/C)C(=O)O)C5=O)C3=O)C=C[C@@](C)(C/C=C/C(C)(C)O)O2 [Gh-3272, formoxanthone H]	0.16 (≈ 0.248 µM)	0.43 (≈ 0.667 µM)	1.7 (≈ 2.64 µM)	5.1 (≈ 7.91 µM)	2.5 (≈ 3.88 µM)	1.7 (≈ 2.64 µM)	4.7 (≈ 7.29 µM)	0.12 (≈ 0.186 µM)	1.2 (≈ 1.86 µM)	3.7 (≈ 5.74 µM)	0.73 (≈ 1.13 µM)	2.8 (≈ 4.34 µM)	0.36 (≈ 0.558 µM)	6.6 (≈ 10.2 µM)	–
C=C(C)C(O)CC[C@]1(C)C=Cc2c(O)c3c(c(CC=C(C)C)c2O1)O[C@]12C(=C[C@@H]4CC1C(C)(C)OC2(C/C=C(/C)C(=O)O)C4=O)C3=O (some centres unmarked) [Gh-3291, formoxanthone D]	0.22 (≈ 0.341 µM)	0.61 (≈ 0.946 µM)	4.5 (≈ 6.98 µM)	30 (≈ 46.5 µM)	1.4 (≈ 2.17 µM)	0.62 (≈ 0.962 µM)	3.3 (≈ 5.12 µM)	0.34 (≈ 0.527 µM)	0.65 (≈ 1.01 µM)	8.7 (≈ 13.5 µM)	0.45 (≈ 0.698 µM)	2.8 (≈ 4.34 µM)	0.081 (≈ 0.126 µM)	4.7 (≈ 7.29 µM)	–
CC(C)=CCC[C@@]1(C)C=Cc2c(O)c3c(c(C(O)C4OC4(C)C)c2O1)O[C@]12C(=C[C@@H]4CC1C(C)(C)OC2(C/C=C(/C)C(=O)O)C4=O)C3=O (some centres unmarked) [Gh-3311, epiformoxanthone G]	1.9 (≈ 2.88 µM)	5.4 (≈ 8.17 µM)	1.4 (≈ 2.12 µM)	2.2 (≈ 3.33 µM)	13.9 (≈ 21 µM)	5 (≈ 7.57 µM)	21.2 (≈ 32.1 µM)	4 (≈ 6.05 µM)	7.9 (≈ 12 µM)	25.6 (≈ 38.7 µM)	8 (≈ 12.1 µM)	14 (≈ 21.2 µM)	7.9 (≈ 12 µM)	38 (≈ 57.5 µM)	–
CC(C)=CCc1c2c(c(O)c3c1O[C@]14C(=C[C@@H]5CC1C(C)(C)OC4(C/C=C(\C)C(=O)O)C5=O)C3=O)C=CC(C)(C/C=C\C(C)(C)O)O2 (some centres unmarked) [Gh-3332, isoformoxanthone I]	0.23 (≈ 0.357 µM)	1.4 (≈ 2.17 µM)	11.8 (≈ 18.3 µM)	30.5 (≈ 47.3 µM)	3.3 (≈ 5.12 µM)	1.3 (≈ 2.02 µM)	4.6 (≈ 7.13 µM)	0.11 (≈ 0.171 µM)	6.7 (≈ 10.4 µM)	19.6 (≈ 30.4 µM)	0.87 (≈ 1.35 µM)	3.3 (≈ 5.12 µM)	0.85 (≈ 1.32 µM)	73.8 (≈ 114 µM)	–
CC(C)=CCC[C@@]1(C)C=Cc2c(O)c3c(c(CC4OC4(C)C)c2O1)O[C@]12C(=C[C@@H]4CC1C(C)(C)OC2(C/C=C(/C)C(=O)O)C4=O)C3=O (some centres unmarked) [Gh-3351, epiformoxanthone E]	0.24 (≈ 0.372 µM)	0.62 (≈ 0.962 µM)	11.7 (≈ 18.1 µM)	22.1 (≈ 34.3 µM)	3.3 (≈ 5.12 µM)	0.77 (≈ 1.19 µM)	3.4 (≈ 5.27 µM)	0.11 (≈ 0.171 µM)	2.9 (≈ 4.5 µM)	31.2 (≈ 48.4 µM)	0.99 (≈ 1.54 µM)	3.8 (≈ 5.89 µM)	1.9 (≈ 2.95 µM)	72.6 (≈ 113 µM)	–
CC(C)=CCC[C@]1(C)C=Cc2c(O)c3c(c(CC4OC4(C)C)c2O1)O[C@]12C(=C[C@@H]4CC1C(C)(C)OC2(C/C=C(/C)C(=O)O)C4=O)C3=O (some centres unmarked) [Gh-3352, formoxanthone E]	0.11 (≈ 0.171 µM)	0.26 (≈ 0.403 µM)	0.26 (≈ 0.403 µM)	0.93 (≈ 1.44 µM)	0.85 (≈ 1.32 µM)	0.18 (≈ 0.279 µM)	0.99 (≈ 1.54 µM)	0.084 (≈ 0.13 µM)	0.16 (≈ 0.248 µM)	2 (≈ 3.1 µM)	0.075 (≈ 0.116 µM)	1.8 (≈ 2.79 µM)	0.18 (≈ 0.279 µM)	0.68 (≈ 1.05 µM)	–
CC(C)=CCC[C@]1(C)C=Cc2c(O)c3c(c(C(O)C4OC4(C)C)c2O1)O[C@]12C(=C[C@@H]4CC1C(C)(C)OC2(C/C=C(/C)C(=O)O)C4=O)C3=O (some centres unmarked) [Gh-3353, formoxanthone G]	4.8 (≈ 7.26 µM)	14.6 (≈ 22.1 µM)	1.3 (≈ 1.97 µM)	2.4 (≈ 3.63 µM)	8.4 (≈ 12.7 µM)	2.6 (≈ 3.93 µM)	8.2 (≈ 12.4 µM)	5.5 (≈ 8.32 µM)	5.3 (≈ 8.02 µM)	35.5 (≈ 53.7 µM)	2.4 (≈ 3.63 µM)	9.6 (≈ 14.5 µM)	5 (≈ 7.57 µM)	20.8 (≈ 31.5 µM)	–
CN1CC[C@]23c4c5ccc(O)c4O[C@H]2[C@@H](O)C=C[C@H]3[C@H]1C5 [Morphine, morphine]	–	–	–	–	–	–	–	–	–	–	–	–	–	–	Inhibition rate of hind paw licking (%) (male CD-1 (Crl.) mice [10]; [12]): 62* %; Inhibition rate of hind paw licking (%) (male CD-1 (Crl.) mice [10]; 10-15 minutes after formalin injection): 89* %; Inhibition rate of hind paw licking (%) (male CD-1 (Crl.) mice [10]; 15-20 minutes after formalin injection): 81* %; Inhibition rate of hind paw licking (%) (male CD-1 (Crl.) mice [10]; 20-25 minutes after formalin injection): 68* %; Inhibition rate of hind paw licking (%) (male CD-1 (Crl.) mice [10]; 25-30 minutes after formalin injection): 0%; Inhibition rate of hind paw licking (%) (male CD-1 (Crl.) mice [11]; [12]): 100* %; Inhibition rate of hind paw licking (%) (male CD-1 (Crl.) mice [11]; 15-30 minutes after formalin injection): 100* %
